What was measured:
Assay in all cases: Eurofins kinase profiling
Type in all cases: biochemical
ARK5(h) = molecular target: T1, ARK5(h) (Homo sapiens, UniProt O60285); conditions: read-out: residual kinase activity ARK5(h)
T1 construct: purchased Eurofins KinaseProfiler
T1 sequence (O60285 1-661): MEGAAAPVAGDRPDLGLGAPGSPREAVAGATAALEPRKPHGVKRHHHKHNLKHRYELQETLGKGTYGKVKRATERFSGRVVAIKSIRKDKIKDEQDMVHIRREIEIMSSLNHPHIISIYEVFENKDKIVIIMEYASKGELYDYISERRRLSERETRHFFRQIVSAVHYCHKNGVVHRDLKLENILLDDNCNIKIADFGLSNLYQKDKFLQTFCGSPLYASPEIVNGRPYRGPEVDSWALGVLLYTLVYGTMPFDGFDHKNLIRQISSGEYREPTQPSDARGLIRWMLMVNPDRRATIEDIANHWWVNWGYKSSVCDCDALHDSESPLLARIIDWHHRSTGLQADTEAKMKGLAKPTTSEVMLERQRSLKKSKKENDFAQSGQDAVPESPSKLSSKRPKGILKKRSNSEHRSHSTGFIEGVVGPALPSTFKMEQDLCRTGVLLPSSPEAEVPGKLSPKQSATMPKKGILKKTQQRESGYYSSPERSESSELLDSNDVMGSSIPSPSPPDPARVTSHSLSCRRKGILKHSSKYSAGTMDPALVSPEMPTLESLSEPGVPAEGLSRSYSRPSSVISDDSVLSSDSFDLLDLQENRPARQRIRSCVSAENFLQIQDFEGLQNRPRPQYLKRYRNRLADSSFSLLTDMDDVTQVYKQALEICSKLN
Description: (§1) The kinase profiling analysis was performed at Eurofins (Poitiers, France). A total of 110 kinase assays were carried out according to Eurofins’ standard protocols. For protein kinase assays, the kinase activity was measured using Eurofins’ KinaseProfiler radiometric assay. In this assay, a panel of kinases was incubated with the test compound SJP1602 at a concentration of 1 µM, and the kinase activity was determined using radiolabeled phosphate as a substrate. Lipid and atypical kinase assays were conducted using Eurofins’ homogeneous time-resolved fluorescence assay. The same panel of kinases was incubated with SJP1602 at a concentration of 1 µM, and the activity of lipid and atypical kinases was measured using this assay.

CDK5/p35(h) = molecular target: T2, CDK5/p35(h) (Homo sapiens, UniProt Q00535); conditions: read-out: residual kinase activity CDK5/p35(h)
T2 construct: purchased Eurofins KinaseProfiler
Description: as §1

CHK2(h) = molecular target: T3, CHK2(h) (Homo sapiens, UniProt O96017); conditions: read-out: residual kinase activity CHK2(h)
T3 construct: purchased Eurofins KinaseProfiler
Description: as §1

CK1γ3(h) = molecular target: T4, CK1γ3(h) (Homo sapiens, UniProt Q9Y6M4); conditions: read-out: residual kinase activity CK1γ3(h)
T4 construct: purchased Eurofins KinaseProfiler
Description: as §1

DAPK1(h) = molecular target: T5, DAPK1(h) (Homo sapiens, UniProt P53355); conditions: read-out: residual kinase activity DAPK1(h)
T5 construct: purchased Eurofins KinaseProfiler
Description: as §1

ErbB2(h) = molecular target: T6, ErbB2(h) (Homo sapiens, UniProt P04626); conditions: read-out: residual kinase activity ErbB2(h)
T6 construct: purchased Eurofins KinaseProfiler
Description: as §1

Fer(h) = molecular target: T7, Fer(h) (Homo sapiens, UniProt P16591); conditions: read-out: residual kinase activity Fer(h)
T7 construct: purchased Eurofins KinaseProfiler
Description: as §1

HIPK2(h) = molecular target: T8, HIPK2(h) (Homo sapiens, UniProt Q9H2X6); conditions: read-out: residual kinase activity HIPK2(h)
T8 construct: purchased Eurofins KinaseProfiler
Description: as §1

HIPK3(h) = molecular target: T9, HIPK3(h) (Homo sapiens, UniProt Q9H422); conditions: read-out: residual kinase activity HIPK3(h)
T9 construct: purchased Eurofins KinaseProfiler
Description: as §1

IGF-1R(h) = molecular target: T10, IGF-1R(h) (Homo sapiens, UniProt P08069); conditions: read-out: residual kinase activity IGF-1R(h)
T10 construct: purchased Eurofins KinaseProfiler
Description: as §1

Lck(h) = molecular target: T11, Lck(h) (Homo sapiens, UniProt P06239); conditions: read-out: residual kinase activity Lck(h)
T11 construct: purchased Eurofins KinaseProfiler
Description: as §1

Lck(h) activated = molecular target: T12, Lck(h) activated (Homo sapiens, UniProt P06239); conditions: 1 µM
T12 construct: purchased Eurofins KinaseProfiler
Description: as §1

MST3(h) = molecular target: T13, MST3(h) (Homo sapiens, UniProt Q9Y6E0); conditions: read-out: residual kinase activity MST3(h)
T13 construct: purchased Eurofins KinaseProfiler
Description: as §1

[1] = molecular target: T14, PI3 Kinase (p110a(E542K)/p85a)(h) (Homo sapiens, UniProt P42336, E542K); conditions: read-out: residual kinase activity PI3 Kinase (p110a(E542K)/p85a)(h)
T14 construct: purchased Eurofins KinaseProfiler
Description: as §1

PKCθ(h) = molecular target: T15, PKCθ(h) (Homo sapiens, UniProt Q04759); conditions: read-out: residual kinase activity PKCθ(h)
T15 construct: purchased Eurofins KinaseProfiler
Description: as §1

Ret(h) = molecular target: T16, Ret(h) (Homo sapiens, UniProt P07949); conditions: read-out: residual kinase activity Ret(h)
T16 construct: purchased Eurofins KinaseProfiler
Description: as §1

ZAP-70(h) = molecular target: T17, ZAP-70(h) (Homo sapiens, UniProt P43403); conditions: read-out: residual kinase activity ZAP-70(h)
T17 construct: purchased Eurofins KinaseProfiler
T17 sequence (P43403 1-619): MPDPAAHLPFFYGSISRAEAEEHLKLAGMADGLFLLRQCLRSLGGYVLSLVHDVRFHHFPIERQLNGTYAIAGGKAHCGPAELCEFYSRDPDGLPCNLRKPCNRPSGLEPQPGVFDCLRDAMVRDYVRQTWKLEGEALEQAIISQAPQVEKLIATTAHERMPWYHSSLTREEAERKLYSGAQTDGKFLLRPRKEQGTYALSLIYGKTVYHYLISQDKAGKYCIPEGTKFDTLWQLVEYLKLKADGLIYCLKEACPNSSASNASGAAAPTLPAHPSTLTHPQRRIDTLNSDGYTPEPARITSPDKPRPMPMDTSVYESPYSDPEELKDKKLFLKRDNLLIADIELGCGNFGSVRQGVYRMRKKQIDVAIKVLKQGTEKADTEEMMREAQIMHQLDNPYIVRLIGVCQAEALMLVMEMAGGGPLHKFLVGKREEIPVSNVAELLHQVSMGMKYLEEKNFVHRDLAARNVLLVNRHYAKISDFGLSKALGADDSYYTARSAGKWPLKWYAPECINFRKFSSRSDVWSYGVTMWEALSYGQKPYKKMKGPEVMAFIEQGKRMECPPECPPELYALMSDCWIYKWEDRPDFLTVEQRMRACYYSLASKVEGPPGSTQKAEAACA
Description: as §1

ZIPK(h) = molecular target: T18, ZIPK(h) (Homo sapiens, UniProt O43293); conditions: read-out: residual kinase activity ZIPK(h)
T18 construct: purchased Eurofins KinaseProfiler
Description: as §1

T12 sequence (P06239 whole entry): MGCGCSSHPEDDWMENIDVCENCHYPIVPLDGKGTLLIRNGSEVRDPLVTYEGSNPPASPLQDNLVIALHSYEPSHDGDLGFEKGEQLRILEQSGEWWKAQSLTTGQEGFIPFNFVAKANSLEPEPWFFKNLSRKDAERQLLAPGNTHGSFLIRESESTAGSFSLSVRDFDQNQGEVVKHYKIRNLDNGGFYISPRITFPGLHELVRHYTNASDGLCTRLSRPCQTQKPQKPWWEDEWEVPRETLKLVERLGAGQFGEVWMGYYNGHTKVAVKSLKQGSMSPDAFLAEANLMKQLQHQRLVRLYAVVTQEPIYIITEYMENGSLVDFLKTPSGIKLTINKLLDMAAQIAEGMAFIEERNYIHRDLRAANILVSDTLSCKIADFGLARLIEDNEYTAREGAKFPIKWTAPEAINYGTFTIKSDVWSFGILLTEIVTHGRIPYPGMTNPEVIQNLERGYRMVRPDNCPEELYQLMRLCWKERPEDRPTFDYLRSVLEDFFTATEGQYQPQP
T11 sequence (P06239 whole entry): as above
T10 sequence (P08069 31-1367): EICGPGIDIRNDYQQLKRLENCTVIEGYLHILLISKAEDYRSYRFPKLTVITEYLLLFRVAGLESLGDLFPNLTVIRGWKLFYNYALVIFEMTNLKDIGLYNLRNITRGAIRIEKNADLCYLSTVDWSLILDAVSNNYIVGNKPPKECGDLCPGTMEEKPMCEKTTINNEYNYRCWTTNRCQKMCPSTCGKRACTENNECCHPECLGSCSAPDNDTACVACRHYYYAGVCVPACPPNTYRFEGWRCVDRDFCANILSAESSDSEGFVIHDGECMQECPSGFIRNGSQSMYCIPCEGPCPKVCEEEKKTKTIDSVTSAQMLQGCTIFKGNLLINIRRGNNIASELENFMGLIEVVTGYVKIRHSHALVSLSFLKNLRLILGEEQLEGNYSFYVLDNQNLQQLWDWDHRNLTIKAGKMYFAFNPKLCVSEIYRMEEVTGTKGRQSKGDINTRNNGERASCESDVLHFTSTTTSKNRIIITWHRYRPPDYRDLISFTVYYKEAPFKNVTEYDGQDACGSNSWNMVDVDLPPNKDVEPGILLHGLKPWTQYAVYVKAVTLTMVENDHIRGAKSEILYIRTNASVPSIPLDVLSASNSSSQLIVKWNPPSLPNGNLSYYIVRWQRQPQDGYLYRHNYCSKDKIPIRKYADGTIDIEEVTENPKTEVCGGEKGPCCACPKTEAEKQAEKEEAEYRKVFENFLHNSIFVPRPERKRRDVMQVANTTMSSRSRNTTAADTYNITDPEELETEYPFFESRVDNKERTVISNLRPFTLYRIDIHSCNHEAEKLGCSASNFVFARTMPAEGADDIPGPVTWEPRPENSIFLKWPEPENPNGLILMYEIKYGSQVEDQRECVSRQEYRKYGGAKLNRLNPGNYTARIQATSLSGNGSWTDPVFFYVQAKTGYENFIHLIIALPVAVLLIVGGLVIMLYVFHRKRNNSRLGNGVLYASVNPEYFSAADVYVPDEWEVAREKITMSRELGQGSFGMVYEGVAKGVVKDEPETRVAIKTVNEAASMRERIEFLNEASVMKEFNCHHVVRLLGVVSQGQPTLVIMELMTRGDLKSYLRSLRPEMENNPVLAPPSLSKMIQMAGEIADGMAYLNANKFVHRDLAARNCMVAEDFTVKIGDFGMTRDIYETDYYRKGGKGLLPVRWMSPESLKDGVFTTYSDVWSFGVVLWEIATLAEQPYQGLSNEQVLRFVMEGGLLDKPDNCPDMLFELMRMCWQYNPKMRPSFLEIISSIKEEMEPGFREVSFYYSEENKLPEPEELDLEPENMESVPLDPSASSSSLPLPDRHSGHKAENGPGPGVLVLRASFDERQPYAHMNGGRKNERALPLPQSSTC
T6 sequence (P04626 23-1255): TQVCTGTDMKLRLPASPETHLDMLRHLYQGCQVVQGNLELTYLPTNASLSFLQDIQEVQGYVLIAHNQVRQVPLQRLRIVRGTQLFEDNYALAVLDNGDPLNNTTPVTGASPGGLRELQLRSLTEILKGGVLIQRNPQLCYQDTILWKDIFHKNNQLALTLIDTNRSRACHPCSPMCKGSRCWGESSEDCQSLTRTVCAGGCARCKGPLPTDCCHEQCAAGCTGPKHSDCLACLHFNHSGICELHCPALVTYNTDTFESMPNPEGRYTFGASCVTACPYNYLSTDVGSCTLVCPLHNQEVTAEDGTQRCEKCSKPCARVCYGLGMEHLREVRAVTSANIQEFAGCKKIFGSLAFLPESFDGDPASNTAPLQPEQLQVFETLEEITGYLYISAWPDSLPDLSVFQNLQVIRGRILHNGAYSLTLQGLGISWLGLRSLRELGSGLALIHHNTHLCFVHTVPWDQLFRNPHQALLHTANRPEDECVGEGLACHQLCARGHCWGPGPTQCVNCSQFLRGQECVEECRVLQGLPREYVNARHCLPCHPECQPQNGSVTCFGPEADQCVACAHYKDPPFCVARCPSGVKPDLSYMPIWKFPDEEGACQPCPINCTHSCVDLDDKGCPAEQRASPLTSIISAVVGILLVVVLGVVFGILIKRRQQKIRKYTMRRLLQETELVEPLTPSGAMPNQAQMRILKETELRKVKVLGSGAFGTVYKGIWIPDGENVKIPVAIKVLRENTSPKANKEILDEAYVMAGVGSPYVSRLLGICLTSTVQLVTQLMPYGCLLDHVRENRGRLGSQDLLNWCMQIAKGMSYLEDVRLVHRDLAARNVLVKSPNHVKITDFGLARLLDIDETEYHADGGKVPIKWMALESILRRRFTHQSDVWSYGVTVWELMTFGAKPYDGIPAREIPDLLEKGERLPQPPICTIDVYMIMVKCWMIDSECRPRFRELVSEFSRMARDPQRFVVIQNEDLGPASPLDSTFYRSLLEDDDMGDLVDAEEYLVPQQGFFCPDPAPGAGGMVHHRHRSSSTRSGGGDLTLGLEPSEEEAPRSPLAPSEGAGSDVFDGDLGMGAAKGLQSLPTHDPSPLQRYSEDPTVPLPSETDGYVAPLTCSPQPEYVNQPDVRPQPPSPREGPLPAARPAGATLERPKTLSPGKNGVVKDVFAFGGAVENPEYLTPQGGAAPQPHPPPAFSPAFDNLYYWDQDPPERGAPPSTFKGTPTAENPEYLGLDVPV
T13 sequence (Q9Y6E0 whole entry): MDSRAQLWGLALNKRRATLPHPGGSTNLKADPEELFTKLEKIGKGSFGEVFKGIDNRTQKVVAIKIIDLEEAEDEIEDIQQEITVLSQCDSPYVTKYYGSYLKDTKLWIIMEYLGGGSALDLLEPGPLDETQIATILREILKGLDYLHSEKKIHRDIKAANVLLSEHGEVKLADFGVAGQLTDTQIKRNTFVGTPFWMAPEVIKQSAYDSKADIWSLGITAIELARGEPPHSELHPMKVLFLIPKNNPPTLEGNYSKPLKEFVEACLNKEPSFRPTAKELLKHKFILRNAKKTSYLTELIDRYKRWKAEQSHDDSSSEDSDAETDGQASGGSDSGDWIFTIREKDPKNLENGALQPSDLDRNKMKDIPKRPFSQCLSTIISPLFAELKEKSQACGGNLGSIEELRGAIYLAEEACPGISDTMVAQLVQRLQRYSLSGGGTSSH
T3 sequence (O96017 whole entry): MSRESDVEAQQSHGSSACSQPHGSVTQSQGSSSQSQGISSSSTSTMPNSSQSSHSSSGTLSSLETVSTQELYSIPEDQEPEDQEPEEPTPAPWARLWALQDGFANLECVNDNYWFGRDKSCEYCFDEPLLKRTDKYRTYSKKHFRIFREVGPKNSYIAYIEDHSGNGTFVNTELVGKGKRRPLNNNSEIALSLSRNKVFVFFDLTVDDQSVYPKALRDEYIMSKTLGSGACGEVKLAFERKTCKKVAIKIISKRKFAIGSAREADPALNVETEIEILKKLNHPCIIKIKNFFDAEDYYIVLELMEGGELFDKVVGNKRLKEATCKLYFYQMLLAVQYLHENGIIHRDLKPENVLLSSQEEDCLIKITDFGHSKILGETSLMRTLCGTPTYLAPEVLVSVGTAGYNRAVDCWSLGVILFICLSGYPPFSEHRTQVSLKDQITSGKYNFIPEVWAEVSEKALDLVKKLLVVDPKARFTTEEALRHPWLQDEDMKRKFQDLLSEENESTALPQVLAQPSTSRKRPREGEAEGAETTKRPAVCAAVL
T18 sequence (O43293 whole entry): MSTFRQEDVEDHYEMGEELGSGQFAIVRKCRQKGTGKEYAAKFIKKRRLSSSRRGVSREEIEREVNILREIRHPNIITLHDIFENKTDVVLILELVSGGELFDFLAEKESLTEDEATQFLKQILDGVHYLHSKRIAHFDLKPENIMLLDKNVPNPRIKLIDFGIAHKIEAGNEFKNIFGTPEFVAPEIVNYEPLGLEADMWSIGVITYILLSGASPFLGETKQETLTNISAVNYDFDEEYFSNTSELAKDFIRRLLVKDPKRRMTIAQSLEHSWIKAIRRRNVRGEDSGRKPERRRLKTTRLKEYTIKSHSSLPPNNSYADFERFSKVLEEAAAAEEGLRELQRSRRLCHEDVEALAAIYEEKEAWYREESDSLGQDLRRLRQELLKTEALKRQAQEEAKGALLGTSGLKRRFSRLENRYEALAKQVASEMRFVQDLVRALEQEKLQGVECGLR
T4 sequence (Q9Y6M4 whole entry): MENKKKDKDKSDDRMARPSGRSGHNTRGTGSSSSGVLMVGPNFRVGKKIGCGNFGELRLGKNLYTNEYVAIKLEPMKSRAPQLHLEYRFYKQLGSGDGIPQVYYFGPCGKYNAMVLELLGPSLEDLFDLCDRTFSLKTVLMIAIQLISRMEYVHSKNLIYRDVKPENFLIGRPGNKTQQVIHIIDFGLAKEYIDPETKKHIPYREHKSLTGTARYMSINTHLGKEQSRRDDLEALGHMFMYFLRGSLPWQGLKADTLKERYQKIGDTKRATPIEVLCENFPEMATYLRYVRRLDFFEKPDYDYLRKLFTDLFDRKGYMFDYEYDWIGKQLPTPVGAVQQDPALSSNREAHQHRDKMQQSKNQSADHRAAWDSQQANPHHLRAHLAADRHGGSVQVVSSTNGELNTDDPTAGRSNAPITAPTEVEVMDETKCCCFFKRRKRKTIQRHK

remaining activity at 1 µM (ARK5(h)) [%] | remaining activity at 1 µM (CDK5/p35(h)) [%] | remaining activity at 1 µM (CHK2(h)) [%] | remaining activity at 1 µM (CK1γ3(h)) [%] | remaining activity at 1 µM (DAPK1(h)) [%] | remaining activity at 1 µM (ErbB2(h)) [%] | remaining activity at 1 µM (Fer(h)) [%] | remaining activity at 1 µM (HIPK2(h)) [%] | remaining activity at 1 µM (HIPK3(h)) [%] | remaining activity at 1 µM (IGF-1R(h)) [%] | remaining activity at 1 µM (Lck(h)) [%] | residual kinase activity Lck(h) activated (Lck(h) activated) | remaining activity at 1 µM (MST3(h)) [%] | remaining activity at 1 µM [1] [%] | remaining activity at 1 µM (PKCθ(h)) [%] | remaining activity at 1 µM (Ret(h)) [%] | remaining activity at 1 µM (ZAP-70(h)) [%] | remaining activity at 1 µM (ZIPK(h)) [%] | SMILES
92 | 94 | 59 | 95 | 83 | 94 | 105 | 94 | 106 | 115 | 110 | 90 | 102 | 97 | 96 | 117 | 105 | 93 | CONC(=O)c1ccccc1Nc1cc(Nc2cc(C)nn2C(C)C)ncc1Cl [GSK2256098]
21 | 10 | 71 | 84 | 94 | 122 | 31 | 16 | 54 | 55 | 30 | 58 | 33 | 104 | 63 | 39 | 139 | 97 | CNC(=O)c1ccc(Nc2ncc(C(F)(F)F)c(NCc3nccnc3N(C)S(C)(=O)=O)n2)cc1 [VS-6063, Defactinib]

SMILES | remaining activity at 1 µM (ARK5(h)) [%] | remaining activity at 1 µM (CDK5/p35(h)) [%] | remaining activity at 1 µM (CHK2(h)) [%] | remaining activity at 1 µM (CK1γ3(h)) [%] | remaining activity at 1 µM (DAPK1(h)) [%] | remaining activity at 1 µM (ErbB2(h)) [%] | remaining activity at 1 µM (Fer(h)) [%] | remaining activity at 1 µM (HIPK2(h)) [%] | remaining activity at 1 µM (HIPK3(h)) [%] | remaining activity at 1 µM (IGF-1R(h)) [%] | remaining activity at 1 µM (Lck(h)) [%] | residual kinase activity Lck(h) activated (Lck(h) activated) | remaining activity at 1 µM (MST3(h)) [%] | remaining activity at 1 µM [1] [%] | remaining activity at 1 µM (PKCθ(h)) [%] | remaining activity at 1 µM (Ret(h)) [%] | remaining activity at 1 µM (ZAP-70(h)) [%] | remaining activity at 1 µM (ZIPK(h)) [%]
CNC(=O)c1cccc(C)c1Nc1nc(Nc2ccc(N3CCN(C4C5CC6CC4CC(O)(C6)C5)CC3)cc2OC)ncc1C(F)(F)F (stereo not drawn) [SJP1602, 2-((2-((4-(4-((2s,5r)-5-hydroxyadamantan-2-yl)piperazin-1-yl)-2-methoxyphenyl)amino)-5-(trifluoromethyl)pyrimidin-4-yl)amino)-N,3-dimethylbenzamide] | 90 | 84 | 51 | 88 | 108 | 113 | 68 | 100 | 100 | 116 | 63 | 107 | 95 | 101 | 93 | 111 | 124 | 100

— PMC10528299, “Targeting FAK/PYK2 with SJP1602 for Anti-Tumor Activity in Triple-Negative Breast Cancer” (Current Issues in Molecular Biology, 2023)
